According to BigSolDB 2.1:

[NH3+]O.[NH3+]O.[O-]n1nnnc1-c1nnnn1[O-]
solubility (mole fraction)
Conditions	298.15 K	303.15 K	308.15 K	313.15 K	318.15 K	323.15 K	328.15 K	333.15 K
in formic acid	0.00145	0.00161	0.0018	0.00201	0.00225	0.00254	0.00287	0.00325
in water	7.96e-05	0.000155	0.00024	0.000317	0.000403	0.000489	0.00058	0.000665
